Tests used:
Type in all cases: in vivo
Monochoria vaginalis = test: Test Example 2: herbicidal activity, application during weed generation in submerged conditions (symbol C); conditions: Table 23; application herbicide amount 320 g/ha; grade 0-5 by criteria of Test Example 1
How it was run: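 Read-out: herbicidal effect on each species rated on a visual scale 3 weeks after treatment. Plants were raised together from seed in flooded alluvial soil (4 cm water) at 25° C. to 30° C. and treated at one to two leaves by water-surface application of diluted emulsion.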

[1] = tested on: Echinochloa crus-galli var. crus-galli; test: Test Example 3: herbicidal effect by foliage application, Wagner pot (symbol H); conditions: application herbicide amount 320 g/ha
How it was run: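 Scoring took place 3 weeks after application, using fixed criteria. Plants had been raised from seed for 14 days at 25 to 30 °C in submerged alluvial soil before a diluted emulsion of the test compound was sprayed uniformly on the leaves.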

Avena fatua = test: Test Example 4: herbicidal effect by soil treatment (symbol I)
How it was run: (§1)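 Seeds were sown in sterilized diluvial soil, covered with about 1.5 cm of soil, and the soil surface was sprayed with a water-diluted emulsion of the compound at a predetermined rate. Plants grew in a greenhouse at 25° C. to 30° C.; effects were scored visually 3 weeks after application.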

Apera spica-venti = test: Test Example 4: herbicidal effect by soil treatment (symbol L)
How it was run: as §1

Stellaria media = test: Test Example 4: herbicidal effect by soil treatment (symbol P)
How it was run: as §1

Galium spurium [2] = test: Test Example 4: herbicidal effect by soil treatment (symbol Q)
How it was run: as §1

Veronica persica [3] = test: Test Example 4: herbicidal effect by soil treatment (symbol R)
How it was run: as §1

wheat = test: Test Example 4: effect on crop by soil treatment (symbol e); conditions: for e: wheat, effect grade on crop: 320 g/ha; for e: wheat, effect on crop grade: application herbicide amount 320 g/ha
How it was run: (§2)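 Soil-treatment setup: crop and weed seeds were spot-sown into sterilized diluvial soil, then buried beneath approximately 1.5 cm of it, and the boxes were housed in a 25–30° C. greenhouse.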

rapeseed = test: Test Example 4: effect on crop by soil treatment (symbol g); conditions: for g: rapeseed, effect grade on crop: 320 g/ha; for g: rapeseed, effect on crop grade: application herbicide amount 320 g/ha
How it was run: as §2

Digitaria ciliaris = test: Test Example 5: herbicidal effect by foliage application, plastic box (symbol F); conditions: 320 g/ha, 3 weeks after application
How it was run: (§3)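 Post-emergence spray; diluvial soil (sterilized), ~1.5 cm seed cover; greenhouse 25–30° C; 14-day-old plants; water-diluted emulsion at predetermined dose; visual score at 3 wk post-treatment.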

Galium spurium [4] = test: Test Example 5: herbicidal effect by foliage application, plastic box (symbol Q); conditions: 320 g/ha, 3 weeks after application
How it was run: as §3

Veronica persica [5] = test: Test Example 5: herbicidal effect by foliage application, plastic box (symbol R); conditions: 320 g/ha, 3 weeks after application
How it was run: as §3

rice plant = test: Test Example 5: effect on crop by foliage application, plastic box (symbol b); conditions: 320 g/ha, 3 weeks after application
How it was run: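 Greenhouse culture at 25° C. to 30° C. followed spot-like sowing into sterilized diluvial soil, with seed covered by roughly 1.5 cm of soil.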

[6] = application herbicide amount 320 g/ha

SMILES	Herbicidal effect grade, C: Monochoria vaginalis (Monochoria vaginalis)	herbicidal effect on H (Echinochloa crus-galli var. crus-galli), grade 0-5 [1]	I: Avena fatua, herbicidal effect grade (Avena fatua; 320 g/ha)	L: Apera spica-venti, herbicidal effect grade (Apera spica-venti; 320 g/ha)	P: Stellaria media, herbicidal effect grade (Stellaria media; 320 g/ha)	Q: Galium spurium, herbicidal effect grade (Galium spurium [2]; 320 g/ha)	R: Veronica persica, herbicidal effect grade (Veronica persica [3]; 320 g/ha)	e: wheat, effect grade on crop (wheat)	g: rapeseed, effect grade on crop (rapeseed)	F: Digitaria ciliaris, herbicidal effect (criteria 0-5) (Digitaria ciliaris)	Q: Galium spurium, herbicidal effect (criteria 0-5) (Galium spurium [4])	R: Veronica persica, herbicidal effect (criteria 0-5) (Veronica persica [5])	b: directly sowed rice plant, effect on crop (criteria 0-5) (rice plant)	F: Digitaria ciliaris, herbicidal effect grade (Digitaria ciliaris)	Q: Galium spurium, herbicidal effect grade (Galium spurium [4])	R: Veronica persica, herbicidal effect grade (Veronica persica [5])	b: directly sowed rice plant, effect on crop grade (rice plant)	I: Avena fatua, herbicidal effect grade (Avena fatua; [6])	L: Apera spica-venti, herbicidal effect grade (Apera spica-venti; [6])	P: Stellaria media, herbicidal effect grade (Stellaria media; [6])	also measured
C=CCOC(=O)OC1=C(c2c(C)cc(C)cc2C)C(=O)C(CC(C)=NOC)C1 (stereo not drawn) [1-146]	4 (Herbicidal ratio of 70% or higher and lower than 90%)	5 (Herbicidal ratio of 90% or more (almost completely withered))	4 (Herbicidal ratio of 70% or higher and lower than 90%)	5 (Herbicidal ratio of 90% or more (almost completely withered))	1 (Herbicidal ratio of 5% or higher and lower than 20%)	0 (Herbicidal ratio of 5% or lower (almost no effect))	5 (Herbicidal ratio of 90% or more (almost completely withered))	5 (Herbicidal ratio of 90% or more (almost completely withered))	5 (Herbicidal ratio of 90% or more (almost completely withered))	5 (Herbicidal ratio of 90% or more (almost completely withered))	3 (Herbicidal ratio of 40% or higher and lower than 70%)	3 (Herbicidal ratio of 40% or higher and lower than 70%)	5 (Herbicidal ratio of 90% or more (almost completely withered))	–	–	–	–	–	–	–	–
COCCOC(=O)OC1=C(c2c(C)cc(C)cc2C)C(=O)C(CC(C)=NOC)C1 (stereo not drawn) [1-147]	3 (Herbicidal ratio of 40% or higher and lower than 70%)	5 (Herbicidal ratio of 90% or more (almost completely withered))	5 (Herbicidal ratio of 90% or more (almost completely withered))	5 (Herbicidal ratio of 90% or more (almost completely withered))	2 (Herbicidal ratio of 20% or higher and lower than 40%)	0 (Herbicidal ratio of 5% or lower (almost no effect))	3 (Herbicidal ratio of 40% or higher and lower than 70%)	5 (Herbicidal ratio of 90% or more (almost completely withered))	4 (Herbicidal ratio of 70% or higher and lower than 90%)	5 (Herbicidal ratio of 90% or more (almost completely withered))	4 (Herbicidal ratio of 70% or higher and lower than 90%)	4 (Herbicidal ratio of 70% or higher and lower than 90%)	5 (Herbicidal ratio of 90% or more (almost completely withered))	–	–	–	–	–	–	–	–
CON=C(C)CC1CC(OC(=O)c2ccccc2C(F)(F)F)=C(c2c(C)cc(C)cc2C)C1=O (stereo not drawn) [1-154]	4 (Herbicidal ratio of 70% or higher and lower than 90%)	5 (Herbicidal ratio of 90% or more (almost completely withered))	0 (Herbicidal ratio of 5% or lower (almost no effect))	5 (Herbicidal ratio of 90% or more (almost completely withered))	0 (Herbicidal ratio of 5% or lower (almost no effect))	0 (Herbicidal ratio of 5% or lower (almost no effect))	0 (Herbicidal ratio of 5% or lower (almost no effect))	3 (Herbicidal ratio of 40% or higher and lower than 70%)	4 (Herbicidal ratio of 70% or higher and lower than 90%)	5 (Herbicidal ratio of 90% or more (almost completely withered))	3 (Herbicidal ratio of 40% or higher and lower than 70%)	3 (Herbicidal ratio of 40% or higher and lower than 70%)	5 (Herbicidal ratio of 90% or more (almost completely withered))	–	–	–	–	–	–	–	–
CC(=O)C(C(C)=O)C1CC(O)=C(c2c(C)cc(C)cc2C)C1=O (stereo not drawn) [2-002]	0 (Herbicidal ratio of 5% or lower (almost no effect))	0 (Herbicidal ratio of 5% or lower (almost no effect))	0 (Herbicidal ratio of 5% or lower (almost no effect))	0 (Herbicidal ratio of 5% or lower (almost no effect))	0 (Herbicidal ratio of 5% or lower (almost no effect))	0 (Herbicidal ratio of 5% or lower (almost no effect))	0 (Herbicidal ratio of 5% or lower (almost no effect))	0 (Herbicidal ratio of 5% or lower (almost no effect))	0 (Herbicidal ratio of 5% or lower (almost no effect))	–	–	–	–	4 (Herbicidal ratio of 70% or higher and lower than 90%)	2 (Herbicidal ratio of 20% or higher and lower than 40%)	1 (Herbicidal ratio of 5% or higher and lower than 20%)	4 (Herbicidal ratio of 70% or higher and lower than 90%)	–	–	–	–
CCC(=O)CC1CC(O)=C(c2c(C)cc(C)cc2C)C1=O (stereo not drawn) [2-006]	2 (Herbicidal ratio of 20% or higher and lower than 40%)	5 (Herbicidal ratio of 90% or more (almost completely withered))	–	–	–	–	–	–	–	–	–	–	–	3 (Herbicidal ratio of 40% or higher and lower than 70%)	0 (Herbicidal ratio of 5% or lower (almost no effect))	0 (Herbicidal ratio of 5% or lower (almost no effect))	4 (Herbicidal ratio of 70% or higher and lower than 90%)	3 (Herbicidal ratio of 40% or higher and lower than 70%)	5 (Herbicidal ratio of 90% or more (almost completely withered))	0 (Herbicidal ratio of 5% or lower (almost no effect))	Q: Galium spurium, herbicidal effect grade (Galium spurium [2]; [6]): 0 (Herbicidal ratio of 5% or lower (almost no effect)); R: Veronica persica, herbicidal effect grade (Veronica persica [3]; [6]): 0 (Herbicidal ratio of 5% or lower (almost no effect)); e: wheat, effect on crop grade (wheat): 0 (Herbicidal ratio of 5% or lower (almost no effect)); g: rapeseed, effect on crop grade (rapeseed): 4 (Herbicidal ratio of 70% or higher and lower than 90%)
CCOC(=O)C(C(=O)C(F)(F)F)C1CC(O)=C(c2c(C)cc(C)cc2C)C1=O (stereo not drawn) [2-010]	0 (Herbicidal ratio of 5% or lower (almost no effect))	3 (Herbicidal ratio of 40% or higher and lower than 70%)	–	–	–	–	–	–	–	–	–	–	–	0 (Herbicidal ratio of 5% or lower (almost no effect))	0 (Herbicidal ratio of 5% or lower (almost no effect))	0 (Herbicidal ratio of 5% or lower (almost no effect))	0 (Herbicidal ratio of 5% or lower (almost no effect))	0 (Herbicidal ratio of 5% or lower (almost no effect))	0 (Herbicidal ratio of 5% or lower (almost no effect))	0 (Herbicidal ratio of 5% or lower (almost no effect))	Q: Galium spurium, herbicidal effect grade (Galium spurium [2]; [6]): 0 (Herbicidal ratio of 5% or lower (almost no effect)); R: Veronica persica, herbicidal effect grade (Veronica persica [3]; [6]): 0 (Herbicidal ratio of 5% or lower (almost no effect)); e: wheat, effect on crop grade (wheat): 0 (Herbicidal ratio of 5% or lower (almost no effect)); g: rapeseed, effect on crop grade (rapeseed): 0 (Herbicidal ratio of 5% or lower (almost no effect))
